Measurements from US20140298493A1, “PIK3CA H1047R Knock-In Non-Human Animal Breast Cancer Model” (priority 2011, published 2014).
“Also recorded” adds a separate entry of the source.

Assays:
[1] = test system: PIK3CA^e20H1047R mammary tumor explants (spindle cell tumor with TP53 mutations) grown as xenografts; test: Drug efficacy study: mammary tumor explants implanted subcutaneously near mammary fat pad, tumor growth inhibition and time to progression; type: in vivo, C.B-17 SCID beige mice
Protocol: Tumor sizes and mouse body weights were recorded twice weekly over the course of the study. […] The 2.5 and 97.5 percentiles of the simulated distribution were used as the […] UIs.

[2] = test system: pAKT and pS6 (PI3K pathway) in PIK3CA^e20H1047R mammary tumor explants; test: Western blot of tumors from GDC-0941 treated mice (PI3K pathway inhibition); type: in vivo, C.B-17 SCID beige mice; conditions: at least up to 10 hours following treatment
Protocol: Frozen tumors were weighed and lysed with a pestle PP (Scienceware, NJ) in cell extract buffer (Invitrogen, CA) supplemented with protease inhibitors (F. Hoffman-La Roche, Ltd., Germany), 1 mM phenylmethysulfonyl fluoride, and phosphatase inhibitor cocktails 1 and 2 (Sigma, Mo.). Protein concentrations were determined using the Pierce BCA Protein Assay Kit (Rockford, Ill.). For Western blots equal amounts of protein were separated by electrophoresis through NuPage Bis-Tris 4-12% gradient gels (Invitrogen, CA), proteins were transferred onto nitrocellulose pore membranes using the iBlot system (Invitrogen, CA). Primary antibodies used for blotting include pAkt (Ser473), pAkt (Thr308), total Akt, pS6 (Ser235/236), pS6 (Ser240/242) and total S6 antibodies were obtained from Cell Signaling Technology (Danvers, Mass.), and anti-actin antibody was purchased from Sigma-Aldrich (St. Louis, Mo.). Chemiluminescence western blotting detection (Amersham Biosciences, PA) coupled with appropriate secondary horseradish peroxidase-conjugated secondary IgG antibodies was employed, to detect the primary antibody bound proteins.

CS(=O)(=O)N1CCN(Cc2cc3nc(-c4cccc5[nH]ncc45)nc(N4CCOCC4)c3s2)CC1 [GDC-0941]
tumor growth inhibition (TGI) ([1]; 150 mg/kg, daily oral gavage for 13 days, % TGI relative to vehicle (AUC based), highest TGI): 85%
response of tumor explants grown as xenografts to treatment ([1]; FIG. 5a legend): respond to treatment
time to progression, log-rank test versus vehicle control ([1]; all doses tested (50, 100, 150 mg/kg), p<0.0001 at 150 mg/kg): statistically significant difference
tumor growth inhibition compared to vehicle treatment ([1]; other doses tested (50 and 100 mg/kg), daily oral gavage for 13 days): tumor growth inhibition was also observed
pAKT and pS6 in tumor from treated mice [2]: significant decrease in pAKT and pS6; also recorded: evidence of PI3K pathway inhibition
